In ChEMBL document CHEMBL3804765, “One-pot synthesis and sigma receptor binding studies of novel spirocyclic-2,6-diketopiperazine derivatives” (Bioorg Med Chem Lett, 2016) one finds Ki data, which are given here for 15 compounds.

Assay [1] can be described thus: Displacement of [3H]-DTG from Sigma2 receptor in Sprague-Dawley rat liver membrane after 150 mins by liquid scintillation counting analysis in presence of sigma1 blocker (+)-pentazocine. Type of assay: cell membranes.
For assay [2], the target named is Sigma non-opioid intracellular receptor 1 (Cavia porcellus, UniProt Q60492). The assay can be described thus: Displacement of [3H](+)-pentazocine from Sigma1 receptor in Dunkin Hartley guinea pig brain membrane after 120 mins by liquid scintillation counting analysis. On the technique in general: Displacement assays read how much labelled ligand stays bound in the presence of the test substance.
Chain of Sigma non-opioid intracellular receptor 1 (Q60492 whole entry): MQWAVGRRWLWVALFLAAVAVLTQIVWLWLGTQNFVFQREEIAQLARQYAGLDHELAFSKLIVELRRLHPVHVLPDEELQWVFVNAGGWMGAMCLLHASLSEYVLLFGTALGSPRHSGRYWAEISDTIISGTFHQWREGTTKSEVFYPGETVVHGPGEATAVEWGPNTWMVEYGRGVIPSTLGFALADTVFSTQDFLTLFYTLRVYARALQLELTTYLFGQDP

Assay [3] is described as follows: Displacement of [3H]-DTG from Sigma2 receptor in rat brain by liquid scintillation counting analysis in presence of sigma1 blocker (+)-pentazocine. The assay is classed as tissue-based.
The nature of assay [4]: Displacement of [3H]-DTG from Sigma2 receptor in Sprague-Dawley rat liver membrane after 150 mins by liquid scintillation counting analysis in presence of sigma1 blocker AC915. The assay is classed as cell membranes.

Regarding `COc1ccc(C(=O)N2CC(=O)N(C3CCCCC3)C(=O)C23CCCC3)cc1`, the Ki in assay [1] is 98 nM; in assay [2], 429 nM. On to `O=C1CN(C(=O)c2ccccc2)C2(CCN(Cc3ccccc3)CC2)C(=O)N1C1CCCCC1`, for which the inhibitory constant (Ki) stood at 248 nM in assay [1] and 7.2 nM in assay [2]. Take `Cc1ccc(C(=O)N2CC(=O)N(C3CCCCC3)C(=O)C23CCN(Cc2ccccc2)CC3)cc1`: the Ki in assay [1] stood at 134 nM; in assay [2] it was 11.1 nM. For `Cc1ccc(C(=O)N2CC(=O)N(C3CCCCC3)C(=O)C23CCCC3)cc1`, in that order: 134 nM and 189 nM. In the case of `CC(C)(C)C1CCC2(CC1)C(=O)N(C1CCCCC1)C(=O)CN2C(=O)c1ccccc1` (stereo unspecified), the Ki is > 10000 nM in assay [1] and 7900 nM in assay [2]. Taken in the same sequence, the figures for `COc1ccc(C(=O)N2CC(=O)N(C3CCCCC3)C(=O)C23CCN(Cc2ccccc2)CC3)cc1` were 563 nM and 5.9 nM. `Cc1ccc(C(=O)N2CC(=O)N(C3CCCCC3)C(=O)C23CCCCC3)cc1`: the Ki in assay [1] was 2190 nM; in assay [2] it was 399 nM. For `O=C1CN(C(=O)c2ccccc2)C2(CCCC2)C(=O)N1C1CCCCC1`, in that order: 118 nM and 79.8 nM.

For the compound `c1ccc(CN2CCC3(CC2)N=Nc2ccccc2N3)cc1`, the Ki in assay [3] is 4.22 µM. As to `COc1ccc(C(=O)N2CC(=O)N(C3CCCCC3)C(=O)C23CCC(C(C)(C)C)CC3)cc1` (stereo unspecified), the results for the Ki in assay [1] and in assay [2] were > 10000 nM and 9360 nM, respectively.

With `COc1ccc(C(=O)N2CC(=O)N(C3CCCCC3)C(=O)C23CCCCC3)cc1`, the inhibition constant Ki stood at 5380 nM in assay [1] and 1370 nM in assay [2].

On to `COc1ccc(C(=O)N2CC(=O)N(C3CCCCC3)C(=O)C23CCCCC3)c(OC)c1`, for which the Ki is 3170 nM in assay [1] and 968 nM in assay [2]. With `CC(C)=CCN1CC[C@]2(C)c3cc(O)ccc3C[C@H]1[C@H]2C` [(+)-PENTAZOCINE], the inhibition constant (Ki) in assay [4] came to 1820 nM. For the compound `Cc1ccccc1NC(=N)Nc1ccccc1C` [DITOLYLGUANIDINE], the inhibitory constant (Ki) in assay [1] was 59.1 nM. The same measure, in the same setting: under `O=C(CCCN1CCC(O)(c2ccc(Cl)cc2)CC1)c1ccc(F)cc1` [HALOPERIDOL] stands 54.5 nM.

As usually defined, the Ki is a measure of affinity in units of concentration, obtained from inhibition or displacement.
